Common to all, as to assay type: in vivo
In assay [1] the test system is Amaranthus retoflexus (AMARE). The assay is described as follows: Pre-emergence herbicidal glasshouse test. Particulars: pre-emergence (sprayed after one day cultivation), evaluated after 13 days, 100=total damage to plant, 0=no damage to plant; for pest or weed control at 1000 g/ha: Amaranthus retroflexus, 312 h, read-out: PRE Application AMARE, damage to plant; for PRE Application AMARE, damage to plant: 1000 g/ha. The protocol:
(§1) Seeds of a variety of test species were sown in standard soil in pots (Alopecurus myosuroides (ALOMY), Setaria faberi (SETFA), Echinochloa crus-galli (ECHCG), Solanum nigrum (SOLNI) and Amaranthus retoflexus (AMARE)). After cultivation for one day (pre-emergence) or after 8 days cultivation (post-emergence) under controlled conditions in a glasshouse (at 24/16° C., day/night; 14 hours light; 65% humidity), the plants were sprayed with an aqueous spray solution derived from the formulation of the technical active ingredient in acetone/water (50:50) solution containing 0.5% Tween 20 (polyoxyethelyene sorbitan monolaurate, CAS RN 9005-64-5). Compounds were applied at 1000 g/ha. The test plants were then grown in a glasshouse under controlled conditions in a glasshouse (at 24/16° C., day/night; 14 hours light; 65% humidity) and watered twice daily. After 13 days for pre and post-emergence, the test was evaluated (100=total damage to plant; 0=no damage to plant).

The test system of assay [2] is Echinochloa crus-galli (ECHCG). Nature of the assay: Pre-emergence herbicidal glasshouse test. Particulars: pre-emergence (sprayed after one day cultivation), evaluated after 13 days, 100=total damage to plant, 0=no damage to plant; for pest or weed control at 1000 g/ha: Echinochloa crus-galli, 312 h, read-out: PRE Application ECHCG, damage to plant; for PRE Application ECHCG, damage to plant: 1000 g/ha. The protocol:
as §1

Assay [3] deals with Alopecurus myosuroides (ALOMY). The assay is described as follows: Pre-emergence herbicidal glasshouse test. Particulars: pre-emergence (sprayed after one day cultivation), evaluated after 13 days, 100=total damage to plant, 0=no damage to plant; for pest or weed control at 1000 g/ha: Alopecurus myosuroides, 312 h, read-out: PRE Application ALOMY, damage to plant; for PRE Application ALOMY, damage to plant: 1000 g/ha. The method, then: as §1

Assay [4] has as its system Solanum nigrum (SOLNI). The assay is described as follows: Pre-emergence herbicidal glasshouse test. Conditions: pre-emergence (sprayed after one day cultivation), evaluated after 13 days, 100=total damage to plant, 0=no damage to plant; for pest or weed control at 1000 g/ha: Solanum nigrum, 312 h, read-out: PRE Application SOLNI, damage to plant; for PRE Application SOLNI, damage to plant: 1000 g/ha. The method, then:
as §1

The test system of assay [5] is Setaria faberi (SETFA). The assay is described as follows: Pre-emergence herbicidal glasshouse test. Particulars: pre-emergence (sprayed after one day cultivation), evaluated after 13 days, 100=total damage to plant, 0=no damage to plant; for pest or weed control at 1000 g/ha: Setaria faberi, 312 h, read-out: PRE Application SETFA, damage to plant; for PRE Application SETFA, damage to plant: 1000 g/ha. The method, then: as §1

Assay [6] concerns Amaranthus retoflexus (AMARE). Nature of the assay: Post-emergence herbicidal glasshouse test. Conditions: post-emergence (sprayed after 8 days cultivation), evaluated after 13 days, 100=total damage to plant, 0=no damage to plant; for pest or weed control at 1000 g/ha: Amaranthus retroflexus, 312 h, read-out: POST Application AMARE, damage to plant; for POST Application AMARE, damage to plant: 1000 g/ha. The method, then: as §1

The test system of assay [7] is Echinochloa crus-galli (ECHCG). The assay is described as follows: Post-emergence herbicidal glasshouse test. Particulars: post-emergence (sprayed after 8 days cultivation), evaluated after 13 days, 100=total damage to plant, 0=no damage to plant; for pest or weed control at 1000 g/ha: Echinochloa crus-galli, 312 h, read-out: POST Application ECHCG, damage to plant; for POST Application ECHCG, damage to plant: 1000 g/ha. The method, then: as §1

Assay [8] relates to Alopecurus myosuroides (ALOMY). Nature of the assay: Post-emergence herbicidal glasshouse test. Conditions: post-emergence (sprayed after 8 days cultivation), evaluated after 13 days, 100=total damage to plant, 0=no damage to plant; for pest or weed control at 1000 g/ha: Alopecurus myosuroides, 312 h, read-out: POST Application ALOMY, damage to plant; for POST Application ALOMY, damage to plant: 1000 g/ha. The protocol: as §1

For assay [9], the system named is Solanum nigrum (SOLNI). Nature of the assay: Post-emergence herbicidal glasshouse test. Particulars: post-emergence (sprayed after 8 days cultivation), evaluated after 13 days, 100=total damage to plant, 0=no damage to plant; for pest or weed control at 1000 g/ha: Solanum nigrum, 312 h, read-out: POST Application SOLNI, damage to plant; for POST Application SOLNI, damage to plant: 1000 g/ha. The method, then: as §1

Assay [10] has as its system Setaria faberi (SETFA). Nature of the assay: Post-emergence herbicidal glasshouse test. Particulars: post-emergence (sprayed after 8 days cultivation), evaluated after 13 days, 100=total damage to plant, 0=no damage to plant; for pest or weed control at 1000 g/ha: Setaria faberi, 312 h, read-out: POST Application SETFA, damage to plant; for POST Application SETFA, damage to plant: 1000 g/ha. The protocol: as §1

`Cn1c(=O)ccc2cc(C(=O)C3C(=O)CCCC3=O)c(C(F)(F)F)nc21` [Compound 2.21, 2-(8-methyl-7-oxo-7,8-dihydro-2-trifluoromethyl-[1,8]-naphthyridine-3-carbony)-cyclohexane-1,3-dione]: the pest or weed control at 1000 g/ha in assay [1] was found to be 100%; in [2], 100%; in assay [3], 90%; with Solanum nigrum (SOLNI) [4], 100%; with Setaria faberi (SETFA) [5], 100%; in assay [6] it was 90%. In addition, the pest or weed control at 1000 g/ha is 70% in [7], 80% in assay [8], 80% in the assay on Solanum nigrum (SOLNI) [9] and 80% in the assay with Setaria faberi (SETFA) [10].
Take `O=C1CCCC(=O)C1C(=O)c1cc2cc(F)c(CCF)nc2nc1C(F)(F)F` [Compound 1.69]: the “PRE Application AMARE, damage to plant” value in assay [1] turned out to be 20. For the same compound, the “PRE Application ECHCG, damage to plant” value in assay [2] came out at 100. The “PRE Application ALOMY, damage to plant” value in assay [3] is listed as 60. The “PRE Application SOLNI, damage to plant” value in the assay on Solanum nigrum (SOLNI) [4] was found to be 100. For the same compound, the “PRE Application SETFA, damage to plant” value in the assay on Setaria faberi (SETFA) [5] is recorded as 90. For the same compound, in assay [6], the “POST Application AMARE, damage to plant” value turned out to be 90. In assay [7], the “POST Application ECHCG, damage to plant” value is given as 80. The “POST Application ALOMY, damage to plant” value in assay [8] is recorded as 60. Also, the “POST Application SOLNI, damage to plant” value in the assay with Solanum nigrum (SOLNI) [9] is on record as 80. Also, the “POST Application SETFA, damage to plant” value in the assay with Setaria faberi (SETFA) [10] amounted to 80.
For the compound `Cc1nc2nc(C(F)(F)C(F)(F)F)c(C(=O)C3C(=O)CCCC3=O)cc2cc1F` [Compound 1.94], the “PRE Application AMARE, damage to plant” value in assay [1] was 100. In addition, the “PRE Application ECHCG, damage to plant” value in assay [2] was determined as 100. For the same compound, the “PRE Application ALOMY, damage to plant” value in assay [3] is recorded as 20. The “PRE Application SOLNI, damage to plant” value in the assay with Solanum nigrum (SOLNI) [4] was 90. Moreover, in the assay with Setaria faberi (SETFA) [5], the “PRE Application SETFA, damage to plant” value came out at 100. In addition, the “POST Application AMARE, damage to plant” value in assay [6] is on record as 100. Further, the “POST Application ECHCG, damage to plant” value in [7] was found to be 80. For the same compound, the “POST Application ALOMY, damage to plant” value in assay [8] is 60. Also, the “POST Application SOLNI, damage to plant” value in the assay with Solanum nigrum (SOLNI) [9] stood at 90. Besides, the “POST Application SETFA, damage to plant” value with Setaria faberi (SETFA) [10] was determined as 80.
Turning to `CCc1nc2nc(C(F)(F)F)ccc2cc1C(=O)C1C(=O)CCCC1=O` [Compound 1.107, 2-[2-ethyl-7-trifluoromethyl-[1,8]-naphthyridine-3-carbony]-cyclohexane-1,3-dione], the pest or weed control at 1000 g/ha in [1] came out at 100%; in [2], 100%; in assay [3], 30%; in the assay on Solanum nigrum (SOLNI) [4], 90%; in the assay on Setaria faberi (SETFA) [5] it was 100%; in [6], 100%. Moreover, the pest or weed control at 1000 g/ha in assay [7] stood at 80%; in assay [8], 50%; in the assay with Solanum nigrum (SOLNI) [9], 100%; in the assay on Setaria faberi (SETFA) [10], 90%.
For `O=C1CCCC(=O)C1C(=O)c1cc2ccc(OC3CCCC3)nc2nc1C(F)(F)F` [Compound 1.16], in [1], the “PRE Application AMARE, damage to plant” value stood at 80. Moreover, the “PRE Application ECHCG, damage to plant” value in assay [2] was 90. In addition, in assay [3], the “PRE Application ALOMY, damage to plant” value worked out at 60. Also, in the assay on Solanum nigrum (SOLNI) [4], the “PRE Application SOLNI, damage to plant” value turned out to be 90. Further, the “PRE Application SETFA, damage to plant” value in the assay on Setaria faberi (SETFA) [5] was 90. Besides, the “POST Application AMARE, damage to plant” value in assay [6] is 70. Also, the “POST Application ECHCG, damage to plant” value in assay [7] is 70. Also, the “POST Application ALOMY, damage to plant” value in [8] came out at 70. Besides, in the assay with Solanum nigrum (SOLNI) [9], the “POST Application SOLNI, damage to plant” value is 90. Moreover, the “POST Application SETFA, damage to plant” value with Setaria faberi (SETFA) [10] worked out at 90.
Regarding `O=C1CCCC(=O)C1C(=O)c1cc2ccc(Br)nc2nc1C(F)(F)F` [Compound 1.99], the pest or weed control at 1000 g/ha in assay [1] turned out to be 100%; in assay [2], 90%; in assay [3], 10%; with Solanum nigrum (SOLNI) [4] it was 90%; in the assay on Setaria faberi (SETFA) [5] it was 40%; in assay [6], 100%. For the same compound, the pest or weed control at 1000 g/ha was found to be 80% in assay [7], 30% in [8], 70% with Solanum nigrum (SOLNI) [9] and 80% with Setaria faberi (SETFA) [10].
